Results on two compounds are retold here after ChEMBL document CHEMBL1128572, “Synthesis and biology of 1D-3-deoxyphosphatidylinositol: a putative antimetabolite of phosphatidylinositol-3-phosphate and an inhibitor of cancer cell colony formation” (J Med Chem, 1995).

Each structure is given as a SMILES string.

For one experiment, the system named is HT-29. Nature of the experiment: Inhibition of colony formation of […] human colon carcinoma cell lines. The class given is functional, cell-based.
The nature of experiment [1]: Inhibition of murine Phosphatidylinositol 3-kinase. Also noted: species or system Mus musculus.
The nature of experiment [2]: Inhibition of murine Phosphatidylinositol 3-kinase (No effect). Also noted: species or system Mus musculus.

Regarding `CCCCCCCCCCCCCCCC(=O)OCC(COP(=O)(O)OC1C(O)C(O)C(O)C(F)C1O)OC(=O)CCCCCCCCCCCCCCC` (centres undefined), the figures for the IC50 (with HT-29; in experiment [1]) were 37 µM and 30 µM, respectively.
With `CCCCCCCCCCCCCCCC(=O)OCC(COP(=O)(O)O[C@H]1[C@@H](O)[C@@H](O)[C@H](O)C[C@H]1O)OC(=O)CCCCCCCCCCCCCCC` (some centres undefined), the half-maximal inhibitory concentration (IC50) with HT-29 was 35 µM; in experiment [2], “Not Active”.
